Results as given in US20240043415A1, “KCNT1 INHIBITORS AND METHODS OF USE” (Praxis Precision Medicines, Inc., priority 2020, published 2024).

Target: T1, KCNT1 (KNa1.1, Slack) (Homo sapiens, UniProt Q5JUK3)
T1 construct: expressed in transfected cells; host or cells: HEK-TREX (tetracycline-inducible)
T1 sequence (Q5JUK3 1-1230): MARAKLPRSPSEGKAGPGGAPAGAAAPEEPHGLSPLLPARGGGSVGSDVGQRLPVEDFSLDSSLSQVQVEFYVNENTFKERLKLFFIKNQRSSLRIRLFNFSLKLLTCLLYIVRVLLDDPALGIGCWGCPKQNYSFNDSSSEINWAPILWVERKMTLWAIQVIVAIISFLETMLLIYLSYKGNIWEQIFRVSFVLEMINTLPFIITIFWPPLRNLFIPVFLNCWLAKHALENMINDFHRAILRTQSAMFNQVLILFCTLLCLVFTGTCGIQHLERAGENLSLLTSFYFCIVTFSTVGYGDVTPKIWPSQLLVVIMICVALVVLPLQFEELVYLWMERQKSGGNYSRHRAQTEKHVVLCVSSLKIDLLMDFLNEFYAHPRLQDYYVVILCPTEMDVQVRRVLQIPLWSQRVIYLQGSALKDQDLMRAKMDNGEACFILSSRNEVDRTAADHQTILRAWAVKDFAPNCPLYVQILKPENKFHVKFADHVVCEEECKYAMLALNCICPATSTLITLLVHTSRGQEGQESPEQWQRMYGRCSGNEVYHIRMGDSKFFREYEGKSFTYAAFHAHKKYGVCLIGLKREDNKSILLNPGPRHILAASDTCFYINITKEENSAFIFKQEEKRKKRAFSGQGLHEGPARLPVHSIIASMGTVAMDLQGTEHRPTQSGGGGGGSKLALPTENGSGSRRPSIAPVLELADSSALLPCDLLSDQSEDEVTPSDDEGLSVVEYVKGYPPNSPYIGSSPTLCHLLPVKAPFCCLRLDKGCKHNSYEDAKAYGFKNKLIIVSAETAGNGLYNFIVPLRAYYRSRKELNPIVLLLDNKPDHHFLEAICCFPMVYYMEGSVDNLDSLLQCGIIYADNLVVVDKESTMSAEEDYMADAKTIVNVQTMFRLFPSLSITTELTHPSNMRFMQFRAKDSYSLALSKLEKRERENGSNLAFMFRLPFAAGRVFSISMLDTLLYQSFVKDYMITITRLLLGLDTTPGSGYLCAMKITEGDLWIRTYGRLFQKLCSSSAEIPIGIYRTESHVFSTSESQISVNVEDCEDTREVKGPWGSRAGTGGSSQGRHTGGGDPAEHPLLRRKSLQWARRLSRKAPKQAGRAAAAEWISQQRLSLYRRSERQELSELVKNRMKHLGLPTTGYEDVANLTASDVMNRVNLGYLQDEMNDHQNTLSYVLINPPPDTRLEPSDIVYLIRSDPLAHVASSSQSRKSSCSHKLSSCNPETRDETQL
Assay: KCNT1 patch clamp assay (SyncroPatch 384PE, HEK-TREX cell line)
Format: cell-based
Conditions: tetracycline inducible HEK-TREX cell line, perforated patch, step to 0 mV, room temperature; read-out: KCNT1-WT IC50
Procedure: Currents were recorded using the SyncroPatch 384PE automated, patch clamp system. Pulse generation and data collection were performed with PatchController384 V1.3.0 and DataController384 V1.2.1 (Nanion Technologies). The access resistance and apparent membrane capacitance were estimated using built-in protocols. Current were recorded in perforated patch mode (10 μM escin) from a population of cells. The cells were lifted, triturated, and resuspended at 800,000 cells/ml. The cells were allowed to recover in the cell hotel prior to experimentation. Currents were recorded at room temperature. […] The extracellular solution was used as the wash, reference and compound delivery solution. […] Escin is made at a 5 mM stock in water, aliquoted, and stored at −20° C. The compound plate was created at 2× concentrated in the extracellular solution. The compound was diluted to 1:2 when added to the recording well. The amount of DMSO in the extracellular solution was held constant at the level used for the highest tested concentration. A holding potential of −80 mV with a 100 ms step to 0 mV was used. […] The average mean current from 3 sweeps was calculated and the % inhibition of each compound was calculated. The % Inhibition as a function of the compound concentration was fit with a Hill equation to derive IC50, slope, min and max parameters.

IC50: ≤ 1000 nM
SMILES: C[C@H](NC(=O)c1cc(C(F)(F)F)nn1C)c1noc(-c2ccnc(C3CC3)c2)n1 [Compound 2a, (S)-N-(1-(5-(2-cyclopropylpyridin-4-yl)-1,2,4-oxadiazol-3-yl)ethyl)-1-methyl-3-(trifluoromethyl)-1H-pyrazole-5-carboxamide]
